Entries after “also recorded” stand apart in the source; their conditions may differ. Counter-ions that a name gives are not always drawn.
How the values were obtained:
[1] = system: ischemia-induced [^3H]-Glu release; test: in vitro ischemia model: ischemia-induced [^3H]-Glu release from [^3H]-Gln-loaded hippocampal slices; type: cell-based, rat
Experimental: Rat hippocampus slices 350 μm thick were incubated in 3 ml of medium at 37° C. for 60 minutes. The medium contained 2 μM [^3H]-Gln to label the endogenous Gln pool. The slices then synthesized Glu. The slices were washed and then exposed to superfusion with a buffer for 50 minutes. At 5-minute intervals, [^3H]-Glu was extracted by anion exchange chromatography from a total of 15 superfusion samples and was measured by liquid scintillation counting. The fractional rates of [^3H]-Glu release were calculated from the [^3H]-Glu extracted from the superfusion samples and from the tissue slices after the superfusion.
The model of endogenously produced [^3H]-Glu was likewise used to generate ischemic conditions in vitro. To make a slice “quasi ischemic”, oxygen and glucose were replaced by nitrogen and sucrose during the superfusion. Sucrose was used in place of […] glucose in order to maintain the osmolarity of the superfusion fluid. It is known that sucrose cannot be cleaved in vitro to glucose and fructose. Unlike the tests in which the [^3H]-Glu release was induced electrically, and in order to simulate an ischemia as well as possible, the [^3H]-Glu release was carried out during the incubation and superfusion at 37° C.
Slices of 350 μm thickness were incubated at 37° C. for 60 min in 3 ml medium containing 2 μM [^3H]-Gln in order to label endogenous Gln pools. These slices subsequently were synthesizing Glu. The slices were washed and then superfused for 50 min with buffer. [^3H]-Glu was extracted from 15 5-min-superfusion samples and from the slices by anion-exchange chromatography and measured by liquid scintillation counting. Fractional rates of [^3H]-Glu release were calculated from extracted [^3H]-Glu in the superfusion samples and in the tissue slices obtained after superfusion.
To reproduce in vitro ischemic conditions the model of endogenously formed [^3H]-Glu was also used. To make a slice “quasi-ischemic”, oxygen was replaced by nitrogen and glucose was replaced by sucrose during superfusion. Sucrose was used instead of glucose in order to maintain the osmolarity of the superfusion fluid without being cleaved into glucose and fructose in vitro. At variance to the experiments on electrically evoked [^3H]-Glu release and in order to mimic ischemia as close as possible the experiments on ischemia-induced [^3H]-Glu release were performed at 37° C. throughout incubation and superfusion.
To assess the potency of glibenclamide concentration-inhibition curves of GBP-L on ischemia-induced [^3H]-Glu efflux were obtained in the absence and presence of 0.1 μM glibenclamide (see Jehle et al. 2000).

[2] = system: electrically evoked release of Glu; test: electrically evoked [^3H]-Glu release from [^3H]-Gln-loaded hippocampus slices; type: cell-based, rat
[3] = system: mitochondrial KATP channels; details: for comparison; cited from earlier work
[4] = system: potassium-evoked release of [^3H]-noradrenaline; details: cited from earlier work

O=C(O)[C@@H]1CN[C@@H](C(=O)O)C1 (relative stereo) [PDC, L-trans-pyrrolidine-2,4-dicarboxylate]
response to the ischemia ([^3H]-Glu release) ([1]; 100 μM): noticeably reduced; also recorded: diminishes the response to ischemia markedly

NC1=N[C@H](O)[C@H]2[C@H]3O[C@]4(O)O[C@@H]([C@@H](O)[C@@]2(N1)[C@@H]4O)[C@]3(O)CO [TTX, tetrodotoxin, reference compound]
electrically evoked release of Glu (in words) [2]: partly inhibited; also recorded: widely inhibited

CC1=NS(=O)(=O)c2cc(Cl)ccc2N1 [diazoxide]
IC50 [3]: 50 µM

COc1ccc(Cl)cc1C(=O)NCCc1ccc(S(=O)(=O)NC(=O)NC2CCCCC2)cc1 [glibenclamide]
pA2 value ([1]; glibenclamide 0.1 μM against GBP-L concentration-response curve): 8.28
influence on the effect of GBP-L on ischemia-induced [^3H]-Glu release ([1]; glibenclamide 1 μM): completely abolished

Nc1cc(N2CCCCC2)nc(N)[n+]1OS(=O)(=O)[O-] [minoxidil sulfate]
ischemia-induced [^3H]-Glu efflux (in words) ([1]; 10 μM): significantly reduced

CC(C)C[C@H](CN)CC(=O)O [pregabalin]
potassium-evoked release of [^3H]-noradrenaline (in words) [4]: inhibitory effects

Reference: patent US6984659B2, “2-pyrrolidinone derivatives substituted at position 4 for reducing the extracellular glutamate level” (priority 1997, dated 2006)
